Entries after “also recorded” stand apart in the source; their conditions may differ.
Tested on: lipofuscin
Assay: Immunofluorescence staining / lipofuscin autofluorescence control
Format: cell-based
Conditions: fluorescence microscopy, FIG. 9
Description: In inventive example 6 the derivative LG13 was used to detect lipofuscin rich cells in cell spreads from cell culture by immunofluorescence staining.
Immunofluorescence staining protocol cellsor ounted on coverslips • 1. Wash ×1 in TBS for 5 min at RT. • 2. Wash ×1 in EtOH 50% for 5 min at RT. • 3. Wash ×1 EtOH 70% for 5 min at RT. • 4. Incubate with the compound (LG13) at RT. A drop of freshly prepared compound (LG13) is placed on a clean slide with the use of a syringe that carrying a 2 mm filter (see also FIG. 1 from Evangelou & Gorgoulis, 2016). Then the cover-slip with the cells is turned down (using thin edged forceps) on the slide and attached on the dye drop in a way that the material faces down the drop on the slide (All incubations were performed in chambers (cover slips) and coplin jars (glass slides) to avoid exsiccation of the material), (see also FIG. 1 from Evangelou & Gorgoulis, 2016). • 5. The staining reaction is monitored under the light microscope until detection of the signal (average time 5-8 min). • 6. Wash ×2 in EtOH 50%. • 7. Repeat washing ×2 in fresh EtOH 50%. • 8. Wash ×2 in TBS for 30 sec and ×1 for 5 min at RT. • 9. Incubate with 0.5% Triton X/TBS for 3 min at RT. • 10. Wash ×1 in TBS for 5 min at RT. • 11. […] Observe under the fluorescence microscope

With `CC1(COC(=O)CCCC[C@H]2SC[C@H]3NC(=O)N[C@H]32)Nc2cccc3c(/N=N/c4ccc(/N=N/c5ccccc5)c5ccccc45)ccc(c23)N1` (stereo partly drawn) [LG13, (2-methyl-6-((E)-(4-((E)-phenyldiazenyl)naphthalen-1-yl)diazenyl)-2,3-dihydro-1H-perimidin-2-yl)methyl 5-((3aR,4R,6aS)-2-oxohexahydro-1H-thieno[3,4-d]imidazol-4-yl)pentanoate] as the compound, how does the “effect of staining on lipofuscin autofluorescence” value read?
Its value is “quenched; also recorded: “masks” the autofluorescence ability of lipofuscin”.
